Results as given in the supplement of paper PMC11451515.

Tested on: NOMO1
Assay: cell viability relative to DMSO control; higher = less cytotoxic
Conditions: 48 h
How it was run: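 NOMO1 or SEM (500 cells/well) or P12-Ichikawa (1000 cells/well) leukemia cells were adapted for at least four passages in each medium. They were seeded in 1536-well plates (5 μl) and pin-dosed with library compounds in DMSO over an 11-point threefold series, 47 μM to 0.79 nM. CellTiter-Glo One luminescence was read after 48 h at 37°C. Viability is the per-plate percentage relative to DMSO wells, with cell-free wells as background.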

[1] = HPLM + 10% dialyzed FBS, 0.000781 µM
[2] = HPLM + 10% dialyzed FBS, 0.00234 µM
[3] = HPLM + 10% dialyzed FBS, 0.00702 µM
[4] = HPLM + 10% dialyzed FBS, 0.0211 µM
[5] = HPLM + 10% dialyzed FBS, 0.0632 µM
[6] = HPLM + 10% dialyzed FBS, 0.19 µM
[7] = HPLM + 10% dialyzed FBS, 0.569 µM
[8] = HPLM + 10% dialyzed FBS, 1.71 µM
[9] = HPLM + 10% dialyzed FBS, 5.12 µM
[10] = HPLM + 10% dialyzed FBS, 15.4 µM
[11] = HPLM + 10% dialyzed FBS, 46.1 µM
[12] = RPMI 5 mM glucose + 10% FBS, 0.000781 µM
[13] = RPMI 5 mM glucose + 10% FBS, 0.00234 µM
[14] = RPMI 5 mM glucose + 10% FBS, 0.00702 µM
[15] = RPMI 5 mM glucose + 10% FBS, 0.0211 µM
[16] = RPMI 5 mM glucose + 10% FBS, 0.0632 µM
[17] = RPMI 5 mM glucose + 10% FBS, 0.19 µM
[18] = RPMI 5 mM glucose + 10% FBS, 0.569 µM
[19] = RPMI 5 mM glucose + 10% FBS, 1.71 µM
[20] = RPMI 5 mM glucose + 10% FBS, 5.12 µM
[21] = RPMI 5 mM glucose + 10% FBS, 15.4 µM
[22] = RPMI 5 mM glucose + 10% FBS, 46.1 µM
[23] = RPMI 5 mM glucose + 10% dialyzed FBS, 0.000781 µM
[24] = RPMI 5 mM glucose + 10% dialyzed FBS, 0.00234 µM
[25] = RPMI 5 mM glucose + 10% dialyzed FBS, 0.00702 µM
[26] = RPMI 5 mM glucose + 10% dialyzed FBS, 0.0211 µM
[27] = RPMI 5 mM glucose + 10% dialyzed FBS, 0.0632 µM
[28] = RPMI 5 mM glucose + 10% dialyzed FBS, 0.19 µM
[29] = RPMI 5 mM glucose + 10% dialyzed FBS, 0.569 µM
[30] = RPMI 5 mM glucose + 10% dialyzed FBS, 1.71 µM
[31] = RPMI 5 mM glucose + 10% dialyzed FBS, 5.12 µM
[32] = RPMI 5 mM glucose + 10% dialyzed FBS, 15.4 µM
[33] = RPMI 5 mM glucose + 10% dialyzed FBS, 46.1 µM

Row | SMILES | cell viability [1] | cell viability [2] | cell viability [3] | cell viability [4] | cell viability [5] | cell viability [6] | cell viability [7] | cell viability [8] | cell viability [9] | cell viability [10] | cell viability [11] | cell viability [12] | cell viability [13] | cell viability [14] | cell viability [15] | cell viability [16] | cell viability [17] | cell viability [18] | cell viability [19] | cell viability [20] | cell viability [21] | cell viability [22] | cell viability [23] | cell viability [24] | cell viability [25] | cell viability [26] | cell viability [27] | cell viability [28] | cell viability [29] | cell viability [30] | cell viability [31] | cell viability [32] | cell viability [33]
1 | COc1cc(F)c(F)c(Nc2ccc(I)cc2F)c1N[S+](=O)([O-])C1(C[C@H](O)CO)CC1 | 111% | 119% | 117% | 113% | 116% | 113% | 101% | 113% | 99.3% | 91.8% | 57% | 104% | 95.3% | 94.9% | 99.4% | 99.5% | 102% | 92.5% | 111% | 93.2% | 87.9% | 86.5% | 112% | 110% | 109% | 115% | 108% | 106% | 110% | 122% | 106% | 88.8% | 71.9%
2 | O=C(Nc1cccc(C(F)(F)F)c1)Nc1cc([S+](=O)([O-])NC2CC2)ccc1-c1ccsc1 |  |  |  |  |  |  |  |  |  |  |  | 111% | 99.2% | 102% | 105% | 104% | 97.7% | 105% | 109% | 105% | 96% | 16.5% |  |  |  |  |  |  |  |  |  |  | 
3 | COCC1(CO)C(=O)C2CCN1CC2 (centres undefined) | 116% | 106% | 103% | 123% | 104% | 121% | 92.4% | 130% | 105% | 60.1% | 31.7% | 91.9% | 95.4% | 102% | 106% | 107% | 104% | 103% | 100% | 111% | 79% | 18.1% | 93.8% | 110% | 94.6% | 98.8% | 115% | 108% | 90.9% | 94.6% | 104% | 94.8% | 50.2%
4 | CN(C)[S+](=O)([O-])c1ccc2c(c1)C(=Cc1cc3c([nH]1)CCCC3)C(=O)N2 | 124% | 141% | 122% | 128% | 130% | 122% | 122% | 146% | 120% | 127% | 118% | 125% | 112% | 121% | 115% | 109% | 115% | 123% | 111% | 113% | 108% | 105% |  |  |  |  |  |  |  |  |  |  | 
5 | COc1ccccc1OCC(O)COC(N)=O (centres undefined) | 79.5% | 104% | 108% | 119% | 127% | 116% | 122% | 119% | 130% | 125% | 6.3% | 102% | 98.1% | 102% | 113% | 109% | 98% | 119% | 103% | 114% | 119% | 113% | 94.7% | 109% | 111% | 105% | 116% | 119% | 102% | 107% | 122% | 108% | 100%
6 | O=C(O)CCC1CCC(c2cc(F)ccc2F)([S+](=O)([O-])c2ccc(Cl)cc2)CC1 (centres undefined) | 98.6% | 117% | 137% | 124% | 140% | 139% | 146% | 85.2% | 30.5% | 35.4% | 34% | 122% | 115% | 125% | 124% | 117% | 146% | 126% | 64% | 25.2% | 21.7% | 23.8% | 109% | 137% | 104% | 129% | 126% | 137% | 125% | 102% | 28.5% | 33% | 28.2%
7 | C[C@]12COC(=O)C[C@@H]1CC[C@@H]1[C@@H]2CC[C@@]2(C)[C@H]1CC[C@]2(C)O | 98% | 109% | 103% | 91.1% | 118% | 98% | 98.6% | 103% | 104% | 97.1% | 80% | 90.7% | 87.1% | 86.4% | 97.3% | 101% | 103% | 95.1% | 101% | 90.8% | 81.2% | 84.1% | 97.6% | 101% | 91.4% | 102% | 103% | 92.2% | 78.2% | 92% | 88.3% | 92.4% | 83.1%
8 | CNc1nc(Nc2ccc(C(=O)N3CCOCC3)cc2OC)ncc1Cl |  |  |  |  |  |  |  |  |  |  |  | 103% | 121% | 119% | 109% | 106% | 114% | 111% | 112% | 99.8% | 106% | 90.9% |  |  |  |  |  |  |  |  |  |  | 
9 | Cc1nc2cnc3ccc(C#Cc4cccnc4)cc3c2n1-c1ccc(C(C)(C)C#N)cc1 | 72.6% | 84.9% | 82.3% | 83.2% | 50.2% | 59.6% | 38.7% | 44.8% | 43.3% | 36.3% | 8.48% | 65% | 78.6% | 69.6% | 81.1% | 61.8% | 62.7% | 32% | 47.1% | 44.1% | 38.6% | 7.85% | 66.4% | 81.6% | 91.9% | 84.9% | 56.7% | 60.7% | 30.4% | 48.8% | 40.1% | 48.4% | 9.18%
10 | CC[C@H](NC1=C2N=C[NH]C2=NC=N1)C/3=N/C4=C(C(=CC=C4)F)C(=O)N3C5=CC=CC=C5 |  |  |  |  |  |  |  |  |  |  |  | 116% | 119% | 139% | 122% | 125% | 116% | 113% | 113% | 111% | 107% | 76.9% | 125% | 121% | 123% | 125% | 133% | 110% | 117% | 114% | 100% | 82.2% | 57%
